From PubChem BioAssay AID844 (SRMLSC, 2007) come the findings set out here.

Calls of active or inactive are those of the source. The rule behind the calls is not given here. A value given as a limit tells only on which side of the number the result lay.

Assay [1] can be described thus: doxorubicin EC50 increase in MRP-1 cells, dose response, cell-based, doxorubicin EC50 shift (AID 844).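 For viability: tested at 10 µM; plate controls were cells with vehicle for no effect and cells with cytotoxic drug for full effect.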 The following applies: MRP1 cells, doxorubicin viability shift, 10 uM compound; at 100 µM (top of the series).
In assay [2] the test system is MRP1 cells, doxorubicin viability shift, 10 uM compound. Described as above. The following applies: for EC50: measured here: doxorubicin EC50 with compound.

One may read the viability as a read-out of living cells in per cent, often relative to untreated cells. The term EC50 denotes the midpoint of the concentration-response curve. In the case of `NC1C2CN(c3nc4c(cc3F)c(=O)c(C(=O)O)cn4-c3ccc(F)cc3F)CC12` (centres undefined), the viability in assay [1] was 17.6% (inactive). Moreover, the EC50 in assay [2] was less than 0.195 µM.
The matching figures for `COc1cccc(/C=N/NC(=O)c2cc(-c3cccn3C)n[nH]2)c1O`: 9.49% (inactive) and less than 0.195 µM.
The matching figures for `Oc1ccc(-c2nc(-c3ccc(O)c(O)c3)cs2)cc1`: 1.94% (inactive) and less than 0.195 µM.
The matching figures for `CCOC(=O)c1c(CSC(=N)N)n(-c2ccc(C)cc2)c2cc(Br)c(OC(C)=O)cc12`: 0.37% (inactive) and less than 0.195 µM.
With `NS(=O)(=O)c1ccc(N=Nc2c(-c3ccccc3)[nH]n(-c3nc(-c4ccccc4)cs3)c2=O)cc1`, the viability in assay [1] is 8.13% (inactive). The EC50 in assay [2] is less than 0.195 µM.
The matching figures for `Cc1cc(N/N=C/c2ccc(O)cc2O)nc(-n2nc(C)cc2C)n1`: 15.5% (inactive) and less than 0.195 µM.
The matching figures for `N=C(N)SCc1ccc(Cl)cc1Cl`: 10.9% (inactive) and less than 0.195 µM.
On the same counts, the results for `COc1cc(C2Nc3cccc4cccc(c34)N2)cc(OC)c1O` are 1.31% (inactive) and less than 0.195 µM.
For the molecule `COc1cccc(-c2csc(NC(=O)Oc3ccccc3)n2)c1`, in assay [2], the fold increase in Dox EC50 is 1.52 and the EC50 was 8.23 µM.
The matching figures for `Cc1cc(NC(=O)c2cc(C(C)C)on2)nn1Cc1ccc(Cl)cc1`: 1.35 (inactive) and 7.27 µM.
The matching figures for `CCN(CC)S(=O)(=O)c1ccc2c(c1)nc(SCn1nnc3ccccc3c1=O)n2CC`: 0.52 (inactive) and 2.79 µM.
Consider `COc1cccc(/C=N/N2C(=O)CSC2=S)c1O`, for which, in assay [2], the fold increase in Dox EC50 was 1.31 (inactive) and the EC50 amounted to 7.08 µM.
Consider `Cc1cc(N2CCN(c3cccc(C)c3C)CC2)nc(-c2ccccc2)n1`, for which, in assay [2], the fold increase in Dox EC50 is 0.99 (inactive) and the EC50 was 5.37 µM.
Take `Cc1c(NC(=O)CSc2ccc(Cl)cc2)cccc1-c1nc2ncccc2o1`: in assay [2], the fold increase in Dox EC50 is 0.99 (inactive) and the EC50 came out at 5.34 µM.
Consider `CCOC(=O)CN1C(=O)C(C)(C)Oc2ccc(C(=O)Nc3ccccc3OC)cc21`, for which, in assay [2], the fold increase in Dox EC50 was 0.85 (inactive) and the EC50 came out at 4.6 µM.
On the same counts, the results for `CCCOc1ccc(CSc2ncn[nH]2)cc1` are 0.89 (inactive) and 4.79 µM.
Take `CCc1nnc(NC(=O)c2ccc(S(=O)(=O)NCC(C)C)cc2)s1`: in assay [2], the fold increase in Dox EC50 was 0.53 (inactive) and the EC50 amounted to 2.88 µM.
